The results in this text go back to patent US9790218B2, “Small molecule activators of calcium-activated chloride channels and methods of use” (The Regents of the University of California, priority 2011, dated 2017).

Where two headings read alike, the source gives them in different places.

In experiment [1] the target is T1, TMEM16A (Homo sapiens, UniProt Q5XXA6, DEL476-501).
T1 construct: expressed in transfected cells
T1 sequence (Q5XXA6 with tags, fused parts or gaps isoform Q5XXA6-5 DEL539-564): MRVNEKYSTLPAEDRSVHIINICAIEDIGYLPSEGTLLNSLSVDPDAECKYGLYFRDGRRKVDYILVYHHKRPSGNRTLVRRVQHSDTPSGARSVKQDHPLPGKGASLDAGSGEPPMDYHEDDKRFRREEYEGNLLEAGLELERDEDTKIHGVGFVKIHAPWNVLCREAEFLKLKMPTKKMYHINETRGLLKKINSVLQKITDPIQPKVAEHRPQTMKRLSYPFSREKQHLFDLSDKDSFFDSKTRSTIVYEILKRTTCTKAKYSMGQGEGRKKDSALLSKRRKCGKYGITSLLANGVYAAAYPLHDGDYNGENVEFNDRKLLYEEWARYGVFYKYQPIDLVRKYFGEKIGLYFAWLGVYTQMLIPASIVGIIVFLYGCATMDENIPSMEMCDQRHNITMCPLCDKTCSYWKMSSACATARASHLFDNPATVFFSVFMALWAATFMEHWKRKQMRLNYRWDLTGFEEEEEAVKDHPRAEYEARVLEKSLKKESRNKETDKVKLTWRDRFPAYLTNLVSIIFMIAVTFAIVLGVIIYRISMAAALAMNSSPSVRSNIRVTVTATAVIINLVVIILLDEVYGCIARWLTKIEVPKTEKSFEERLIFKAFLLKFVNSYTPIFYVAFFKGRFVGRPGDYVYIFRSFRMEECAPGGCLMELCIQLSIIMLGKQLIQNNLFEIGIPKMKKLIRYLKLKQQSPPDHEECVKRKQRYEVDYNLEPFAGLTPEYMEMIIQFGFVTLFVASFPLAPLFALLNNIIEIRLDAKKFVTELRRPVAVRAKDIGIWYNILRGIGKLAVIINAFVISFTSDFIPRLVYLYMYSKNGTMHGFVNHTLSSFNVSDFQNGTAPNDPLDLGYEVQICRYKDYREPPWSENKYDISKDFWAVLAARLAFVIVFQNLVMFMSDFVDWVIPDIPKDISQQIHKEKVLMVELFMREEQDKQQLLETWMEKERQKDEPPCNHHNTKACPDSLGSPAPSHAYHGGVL
The experiment is described as follows: Fluorescence plate reader assay of TMEM16A-mediated I^− influx (YFP halide sensor). The note with it: for EC50 (μM) / EC50: fluorescence plate reader assay; for TMEM16A conductance, F class SAR: synthesized F class analogs; for EC50: read-out: EC50. The class given is cell-based. As to the method:
(§1) FRT cells were stably transfected with human TMEM16A (TMEM16A(abc), cDNA provided by Dr. Luis Galietta, Gaslini Institute, Genoa, Italy) and the halide sensor YFP-H148Q/1152L/F46L. Cells were plated in 96-well black-walled microplates (Corning Inc., Corning, N.Y.) at a density of 20,000 cells per well in Coon's modified F12 medium supplemented with 5% fetal calf serum, 2 mM L-glutamine, 100 U/mL penicillin and 100 μg/mL streptomycin. The human submandibular cell line A253 (ATCC HTB 41) was cultured in complete McCoy's 5A medium supplemented with 10% fetal bovine serum, 100 U/mL penicillin and 100 μg/mL streptomycin.
TMEM16A activators were identified from screening of ˜110,000 synthetic drug-like compounds, purified natural products and approved/investigational drugs. The cell-based screen employs FRT cells coexpressing human TMEM16A and the I^−-sensing yellow fluorescent protein YFP-H148Q/1152L/F46L. FRT cells were chosen because of their low basal I^− and Cl^− transport, rapid growth on uncoated plastic, strong stable expression of transfected proteins, and formation of tight junctions for measurements of transepithelial short-circuit current (Ma et al., supra).
High-throughput screening was done using an automated screening platform (Beckman) equipped with FluoStar fluorescence plate readers (BMG Lab Technologies, Durham, N.C.) as described (Ma et al., supra). Each well of a 96-well plate was washed 3 times with PBS (200 μL/wash), leaving 50 μL PBS. Test compounds (0.5 μL) were added to each well at […]. After 10 min, 96-well plates were transferred to a plate reader for fluorescence assay. Each well was assayed individually for TMEM16A-mediated I^− influx by recording fluorescence continuously (400 ms per point) for 2 s (baseline), then 50 μL of a 140 mM I^− solution was added. The initial rate of I^− influx was computed from fluorescence data by non-linear regression.
As diagrammed in FIG. 1A, test compounds at 25 μM final concentration were added 10 min prior to I^− addition. The 10 min incubation was chosen to allow for compound transport into cytoplasm and to minimize false positives from compounds that elevate cytoplasmic Ca^2+ transiently. Fluorescence from individual wells of 96-well plates was measured just prior to and for 6 s after I^− addition for computation of initial I^− influx rate.

Experiment [2] addresses T1, TMEM16A. The experiment is described as follows: Apical membrane current in TMEM16A-expressing FRT cells. The format is cell-based. The note with it: basolateral membrane permeabilized, Cl^− gradient; ATP 100 μM. As for the experimental part: as §1
Snapwell inserts containing TMEM16A-expressing FRT, HBE, CF HBE or HTG cells were mounted in Ussing chambers (Physiologic Instruments, San Diego, Calif.). Amiloride, CFTRinh-172, UTP, ATP, T16Ainh-A01 and TMEM16A activators were added to the apical solution and an equal volume of vehicle was added at the same time to the basolateral solution. Symmetrical HCO3^−-buffered solutions were used for HBE, CF HBE and HTG cells. For FRT cells, the hemichambers were filled with a half-Cl^− solution (apical) and the HCO3^−-buffered solution (basolateral), and the basolateral membrane was permeabilized with 250 μg/mL amphotericin B, as described (Namkung et al. (2010), supra). Cells were bathed for a 10 min stabilization period and aerated with 95% O2/5% CO2 at 37° C. or room temperature. Apical membrane current (for FRT cells) and short-circuit current were measured using an EVC4000 Multi-Channel V/I Clamp (World Precision Instruments, Sarasota, Fla.) and recorded using PowerLab/8sp (AD Instruments, Castle Hill, Australia).
The current increase was sustained for >10 min (FIG. 2B, inset). […] Data are also shown for a second Fact compound (Fact9, see Table 1) in FIG. 9.

Experiment [3] relates to mouse ileal smooth muscle. The experiment is described as follows: Intestinal smooth muscle contraction, ex vivo mouse ileal segments. The note with it: Eact 10 μM, carbachol 1 μM following atropine. As for the experimental part: FIG. 8A-C. Intestinal smooth muscle contraction. FIG. 8A. Representative traces from mouse ileal segments showing effects of T16Ainh-A01 (10 μM), carbachol (CCh, 1 μM) and Eact (10 μM). FIG. 8B. Effect of CCh (1 μM) and Eact (10 μM) following atropine (1 μM). FIG. 8C. Summary of contraction frequency (left), and resting and maximum tone (right) (mean±S.E., n=4-7, * P<0.05).
Wild type CD1 mice (age 8-10 weeks) were killed by avertin overdose (200 mg/kg). The ileum removed and washed with ice-cold HCO3^−-buffered solution. The ends of the ileal segments were tied with silk thread and connected to a force transducer. Beal segments were equilibrated for 60 min with a resting force of ˜1 mN, with changes of the bathing solution every 15 min. Tension was monitored continuously with a fixed-range precision force transducer (TSD, 125 C; Biopac, Goleta, Calif.) connected to a differential amplifier (DA 100B; Biopac). Data were recorded using MP100, Biopac digital acquisition system and analyzed using Acknowledge 3.5.7 software.
TMEM16A in expressed in the interstitial cells of Cajal, the pacemaker cells that control smooth muscle contraction dynamics in stomach and intestine (Huang et al., supra; Gomez-Pinilla et al. (2009) Am. J. Physiol. Gastrointest. Liver Physiol. 296, G1370-1381). The effect of Eact on mouse ileal smooth muscle contraction was investigated using an ex vivo intestinal preparation. […] Without wishing to be bound by theory, the constitutive TMEM16A activity in this ex vivo preparation could obscure Eact activity. To reveal Eact effects, atropine was first added to inhibit basal contractions. […] FIG. 8C summarizes data on contraction frequency, resting tone and maximal tone.

Take `O=C(Nc1ccccc1Br)c1cccc(-n2cnnn2)c1` [2-bromophenyl]: the “EC50 (μM)” value on TMEM16A [1] (Fact analogs) was “inactive”.
Still for that read-out and setting: as for `O=C(Nc1cccc(Br)c1)c1cccc(-n2cnnn2)c1` [3-bromophenyl], the entry is “inactive”.
As to `CN(C)c1ccc(NC(=O)c2cccc(-n3cnnn3)c2)cc1` [4-(N,N-dimethylamino)phenyl], the “EC50 (μM)” value at TMEM16A [1] (Fact analogs) was “inactive”. Besides, the “TMEM16A conductance, F class SAR” value on TMEM16A [1] is listed as “low activity”.
With `O=C(Nc1ccc(Br)c(C(F)(F)F)c1)c1cccc(-n2cnnn2)c1` [4-bromo-3-trifluoromethylphenyl], the EC50 (usually the concentration giving half of the maximal effect) at TMEM16A [1] (Fact analogs) worked out at 55 µM.
As to `O=C(Nc1ccc(Cl)cc1)c1cccc(-n2cnnn2)c1` [4-chlorophenyl], the “EC50 (μM)” value on TMEM16A [1] (Fact analogs) is “inactive”. In addition, on TMEM16A [1], the “TMEM16A conductance, F class SAR” value is “low activity”.
On to `O=C(Nc1ccc([N+](=O)[O-])cc1)c1cccc(-n2cnnn2)c1` [4-nitrophenyl], for which the “EC50 (μM)” value at TMEM16A [1] (Fact analogs) is “inactive”. Further, the “TMEM16A conductance, F class SAR” value at TMEM16A [1] was “low activity”.
Turning to `COc1ccc(CC(=O)N(Cc2ccncc2)c2nc(-c3ccccc3)cs2)c(OC)c1OC` [(pyrid-4-yl)methyl / phenyl, N-(4-pyridylmethyl)-N-(4-phenyl-2-thiazolyl)-2,3,4-trimethoxybenzeneacetamide], on TMEM16A [1] (Eact analogs), the EC50 worked out at 2 µM.
`Nc1ncnc2c1ncn2[C@@H]1O[C@H](COP(=O)(O)OP(=O)(O)OP(=O)(O)O)[C@@H](O)[C@H]1O` [ATP, reference compound]: the “Cl^− current (apical membrane current)” value on TMEM16A [2] is listed as “large but transient elevation in Cl^− current”.
Turning to `CC(C)c1ccc(NC(=O)c2cccc(-n3cnnn3)c2)cc1` [Fact9, N-(4-isopropylphenyl)-3-(1H-tetrazol-1-yl)benzamide], the “Cl^− current (apical membrane current)” value on TMEM16A [2] is recorded as “stimulated TMEM16A Cl^− current”. Also, at TMEM16A [1] (Fact analogs), the EC50 was found to be 11 µM.
Take `CN1[C@@H]2CC[C@H]1C[C@@H](OC(=O)C(CO)c1ccccc1)C2` (stereo partly drawn) [atropine]: in experiment [3], the “contraction after atropine (1 μM)” value is “prevented the carbachol effect”.
With `COc1ccc(-c2csc(N(Cc3ccccc3)C(=O)c3cc(OC)c(OC)c(OC)c3)n2)cc1` [benzyl / 4-methoxyphenyl], the EC50 on TMEM16A [1] (Eact analogs) was found to be 4 µM.
